ChEMBL document CHEMBL1201862, “PubChem BioAssay data set” (2004)
Active and inactive are the calls of the source.

How the values were obtained:
Format in all cases: functional
[1] = molecular target: Melanocortin receptor 4 (Homo sapiens, UniProt P32245); assay: MC4R antagonist potency on cAMP, dose response, cell-based, TR-FRET, biased antagonists (AID 602298);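 also: antagonist potency against agonist-stimulated cAMP production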
[2] = nonselective inhibitors of cellular cAMP signaling, dose response, counter-screen for MC4R biased antagonist project, cell-based, TR-FRET cAMP detection (AID 602305);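 also: U2OS cells stimulated with forskolin near its EC80 as the cAMP inducer; potency is for inhibition of forskolin-stimulated cAMP signaling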
[3] = microbe, parasite or virus in culture; conditions: Mycobacterium tuberculosis
[4] = molecular target: T1, Caspase-3 (Homo sapiens, UniProt P42574); assay: SAR Analysis of small molecule inhibitors of Sentrin-specific proteases (SENPs) using a Caspase-3 Selectivity assay. [Related pubchem assays (depositor defined):AID2540, AID2599, AID434973, AID489001]
T1 sequence (P42574 whole entry): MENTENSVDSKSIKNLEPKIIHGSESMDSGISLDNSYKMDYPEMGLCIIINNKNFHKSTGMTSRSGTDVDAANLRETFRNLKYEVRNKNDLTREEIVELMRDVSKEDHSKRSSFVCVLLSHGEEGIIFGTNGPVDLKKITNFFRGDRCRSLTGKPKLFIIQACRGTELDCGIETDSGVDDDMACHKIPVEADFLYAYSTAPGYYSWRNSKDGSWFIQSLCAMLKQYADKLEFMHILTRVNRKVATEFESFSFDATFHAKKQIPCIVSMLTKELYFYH

[5] = molecular target: T2, Sentrin-specific protease 6 (Homo sapiens, UniProt Q9GZR1); assay: SAR Analysis of small molecule inhibitors of Sentrin-specific protease 6 (SENP6) using a Luminescent assay. [Related pubchem assays (depositor defined):AID2582, AID2599]
T2 sequence (Q9GZR1 whole entry): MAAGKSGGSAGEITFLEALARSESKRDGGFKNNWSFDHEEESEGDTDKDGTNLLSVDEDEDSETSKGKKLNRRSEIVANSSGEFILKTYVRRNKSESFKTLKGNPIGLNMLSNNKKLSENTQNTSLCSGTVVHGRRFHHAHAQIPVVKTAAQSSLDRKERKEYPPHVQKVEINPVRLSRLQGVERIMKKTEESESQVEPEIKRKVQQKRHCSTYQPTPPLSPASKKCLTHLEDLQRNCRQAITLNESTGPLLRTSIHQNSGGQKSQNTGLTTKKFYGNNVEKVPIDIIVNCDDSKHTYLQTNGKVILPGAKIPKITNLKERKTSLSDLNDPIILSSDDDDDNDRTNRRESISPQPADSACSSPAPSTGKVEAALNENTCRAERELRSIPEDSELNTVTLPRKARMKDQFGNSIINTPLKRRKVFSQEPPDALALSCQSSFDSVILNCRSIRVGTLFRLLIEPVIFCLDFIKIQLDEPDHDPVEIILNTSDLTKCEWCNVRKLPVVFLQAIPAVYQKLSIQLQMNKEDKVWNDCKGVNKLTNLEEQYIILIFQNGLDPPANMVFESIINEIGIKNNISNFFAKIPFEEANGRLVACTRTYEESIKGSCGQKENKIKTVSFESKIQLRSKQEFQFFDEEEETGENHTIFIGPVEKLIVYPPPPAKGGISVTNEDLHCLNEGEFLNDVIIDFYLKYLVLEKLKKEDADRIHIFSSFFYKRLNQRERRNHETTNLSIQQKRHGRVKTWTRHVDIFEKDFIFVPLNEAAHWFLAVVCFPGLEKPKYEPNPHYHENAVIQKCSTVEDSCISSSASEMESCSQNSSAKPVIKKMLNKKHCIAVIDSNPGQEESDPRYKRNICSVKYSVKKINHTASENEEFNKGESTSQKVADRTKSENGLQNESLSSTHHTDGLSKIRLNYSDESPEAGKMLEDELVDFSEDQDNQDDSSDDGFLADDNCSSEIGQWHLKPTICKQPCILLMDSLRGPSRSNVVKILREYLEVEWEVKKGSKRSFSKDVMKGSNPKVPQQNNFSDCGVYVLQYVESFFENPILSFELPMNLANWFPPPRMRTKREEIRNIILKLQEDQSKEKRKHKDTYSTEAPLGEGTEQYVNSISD

[6] = molecular target: T3, Sentrin-specific protease 8 (Homo sapiens, UniProt Q96LD8); assay: SENP8 protease inhibitors, SAR follow-up, biochemical, luminescence (AID 504501)
T3 sequence (Q96LD8 whole entry): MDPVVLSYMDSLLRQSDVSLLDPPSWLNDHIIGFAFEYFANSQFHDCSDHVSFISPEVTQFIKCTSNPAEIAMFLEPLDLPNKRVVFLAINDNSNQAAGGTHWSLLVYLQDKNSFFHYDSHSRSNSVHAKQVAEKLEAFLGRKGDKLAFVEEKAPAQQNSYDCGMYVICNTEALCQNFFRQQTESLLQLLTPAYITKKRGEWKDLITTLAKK

[7] = molecular target: T4, Sentrin-specific protease 7 (Homo sapiens, UniProt Q9BQF6); assay: SENP7 protease inhibitors, SAR follow-up, biochemical, luminescence (AID 504497)
T4 sequence (Q9BQF6 whole entry): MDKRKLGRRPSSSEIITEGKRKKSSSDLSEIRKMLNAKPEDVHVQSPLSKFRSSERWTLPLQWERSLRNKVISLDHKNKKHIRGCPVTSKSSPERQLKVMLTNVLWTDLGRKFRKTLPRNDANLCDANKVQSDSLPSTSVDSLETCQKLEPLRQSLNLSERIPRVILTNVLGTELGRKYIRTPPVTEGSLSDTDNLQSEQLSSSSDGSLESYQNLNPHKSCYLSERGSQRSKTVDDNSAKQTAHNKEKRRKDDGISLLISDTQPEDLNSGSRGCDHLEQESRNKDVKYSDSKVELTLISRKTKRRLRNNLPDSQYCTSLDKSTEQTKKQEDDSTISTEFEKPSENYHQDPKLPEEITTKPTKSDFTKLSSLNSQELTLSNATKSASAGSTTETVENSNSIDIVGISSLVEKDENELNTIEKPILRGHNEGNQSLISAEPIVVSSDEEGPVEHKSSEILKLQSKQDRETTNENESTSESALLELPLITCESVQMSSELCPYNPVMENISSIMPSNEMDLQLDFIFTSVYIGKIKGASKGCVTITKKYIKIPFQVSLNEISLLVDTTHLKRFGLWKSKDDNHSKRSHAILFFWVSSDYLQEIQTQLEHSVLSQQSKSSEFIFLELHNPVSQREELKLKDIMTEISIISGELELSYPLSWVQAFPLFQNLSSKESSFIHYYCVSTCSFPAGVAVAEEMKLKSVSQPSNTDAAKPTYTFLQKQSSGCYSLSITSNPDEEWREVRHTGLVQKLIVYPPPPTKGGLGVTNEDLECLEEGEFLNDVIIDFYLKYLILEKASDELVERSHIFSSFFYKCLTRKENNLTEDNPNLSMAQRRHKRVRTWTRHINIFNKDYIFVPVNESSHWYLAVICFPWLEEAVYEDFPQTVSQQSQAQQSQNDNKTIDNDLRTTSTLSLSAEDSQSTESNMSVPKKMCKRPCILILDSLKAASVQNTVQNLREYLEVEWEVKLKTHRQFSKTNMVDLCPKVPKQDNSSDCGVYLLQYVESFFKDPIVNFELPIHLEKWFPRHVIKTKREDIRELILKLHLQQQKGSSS

Melanocortin receptor 4, sequence (P32245 whole entry): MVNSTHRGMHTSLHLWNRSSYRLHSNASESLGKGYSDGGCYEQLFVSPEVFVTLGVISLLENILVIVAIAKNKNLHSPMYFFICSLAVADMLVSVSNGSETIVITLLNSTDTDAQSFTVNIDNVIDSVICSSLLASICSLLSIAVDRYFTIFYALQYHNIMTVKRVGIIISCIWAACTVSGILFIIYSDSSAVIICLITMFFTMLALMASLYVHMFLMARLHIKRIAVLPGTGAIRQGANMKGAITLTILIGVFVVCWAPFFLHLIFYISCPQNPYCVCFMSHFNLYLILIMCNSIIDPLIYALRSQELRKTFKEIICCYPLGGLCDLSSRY

| Compound | IC50 [1] | IC50 [2] | CC50 [3] | IC50 [4] | IC50 [5] | IC50 [6] | IC50 [7] |
| --- | --- | --- | --- | --- | --- | --- | --- |
| CC(=N)C1=C(O)C2(C)C(=CC1=O)Oc1c(C(C)=O)c(O)c(C)c(O)c12 (centres undefined) | > 64.6 µM (inactive) | > 64.6 µM (inactive) |  |  |  |  |  |
| COc1cc2c(cc1NC(=O)CN1C(=O)NC3(CCc4ccccc43)C1=O)oc1ccccc12 (centres undefined) | > 64.6 µM (inactive) | > 64.6 µM (inactive) | 23.6 µM (active) |  |  |  |  |
| CS(=O)(=O)c1ccc(N/N=C/c2cn(Cc3ccccc3)c3ccccc23)cc1 |  |  |  | > 99 µM (inactive) | > 99 µM (inactive) | > 99 µM (inactive) | > 99 µM (inactive) |
